# Target: T1, epithelial sodium channel (ENaC) (Mus musculus, UniProt Q61180+Q9WU38+Q9WU39)
# T1 construct: Mouse kidney M-1 cells were cultivated in DMEM containing 5% FCS and 5 μM dexamethasone; endogenous in cells; host or cells: mouse kidney M-1 cells
# T1 sequence (Q61180 1-699): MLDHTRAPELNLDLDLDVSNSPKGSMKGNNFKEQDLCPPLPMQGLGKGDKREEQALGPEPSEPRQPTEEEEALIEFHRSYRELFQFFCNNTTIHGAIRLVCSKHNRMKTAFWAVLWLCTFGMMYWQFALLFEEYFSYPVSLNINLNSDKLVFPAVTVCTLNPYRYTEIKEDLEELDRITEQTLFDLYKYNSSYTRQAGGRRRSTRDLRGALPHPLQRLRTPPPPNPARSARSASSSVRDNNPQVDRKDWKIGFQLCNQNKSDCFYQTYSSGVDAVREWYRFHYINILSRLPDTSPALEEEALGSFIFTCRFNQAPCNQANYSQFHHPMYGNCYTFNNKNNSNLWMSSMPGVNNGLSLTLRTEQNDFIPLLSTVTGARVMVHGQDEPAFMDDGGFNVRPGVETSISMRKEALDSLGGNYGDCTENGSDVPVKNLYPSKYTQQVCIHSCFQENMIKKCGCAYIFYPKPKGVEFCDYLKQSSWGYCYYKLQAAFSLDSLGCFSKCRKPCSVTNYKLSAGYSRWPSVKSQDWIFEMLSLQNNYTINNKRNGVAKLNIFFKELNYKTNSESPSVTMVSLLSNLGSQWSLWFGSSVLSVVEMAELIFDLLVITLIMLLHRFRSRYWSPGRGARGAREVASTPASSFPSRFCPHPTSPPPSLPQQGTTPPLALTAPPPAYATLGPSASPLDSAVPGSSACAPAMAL
# T1 sequence (Q9WU38 1-638): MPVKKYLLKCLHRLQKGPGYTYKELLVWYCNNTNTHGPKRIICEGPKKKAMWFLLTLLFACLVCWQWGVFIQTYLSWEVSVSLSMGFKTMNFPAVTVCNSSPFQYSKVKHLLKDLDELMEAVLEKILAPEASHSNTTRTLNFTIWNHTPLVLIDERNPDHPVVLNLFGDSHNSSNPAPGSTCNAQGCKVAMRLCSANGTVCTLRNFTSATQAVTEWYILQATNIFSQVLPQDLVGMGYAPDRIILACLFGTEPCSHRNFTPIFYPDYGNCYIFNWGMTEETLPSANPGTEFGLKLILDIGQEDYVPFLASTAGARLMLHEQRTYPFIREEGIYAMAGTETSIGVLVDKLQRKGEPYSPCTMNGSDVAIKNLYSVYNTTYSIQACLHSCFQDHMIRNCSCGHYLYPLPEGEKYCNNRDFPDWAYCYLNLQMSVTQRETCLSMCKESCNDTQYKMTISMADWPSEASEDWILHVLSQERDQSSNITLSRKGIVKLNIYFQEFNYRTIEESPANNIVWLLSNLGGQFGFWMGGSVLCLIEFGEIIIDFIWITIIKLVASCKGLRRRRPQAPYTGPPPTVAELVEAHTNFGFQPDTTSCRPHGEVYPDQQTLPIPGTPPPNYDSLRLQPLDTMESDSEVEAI
# T1 sequence (Q9WU39 1-655): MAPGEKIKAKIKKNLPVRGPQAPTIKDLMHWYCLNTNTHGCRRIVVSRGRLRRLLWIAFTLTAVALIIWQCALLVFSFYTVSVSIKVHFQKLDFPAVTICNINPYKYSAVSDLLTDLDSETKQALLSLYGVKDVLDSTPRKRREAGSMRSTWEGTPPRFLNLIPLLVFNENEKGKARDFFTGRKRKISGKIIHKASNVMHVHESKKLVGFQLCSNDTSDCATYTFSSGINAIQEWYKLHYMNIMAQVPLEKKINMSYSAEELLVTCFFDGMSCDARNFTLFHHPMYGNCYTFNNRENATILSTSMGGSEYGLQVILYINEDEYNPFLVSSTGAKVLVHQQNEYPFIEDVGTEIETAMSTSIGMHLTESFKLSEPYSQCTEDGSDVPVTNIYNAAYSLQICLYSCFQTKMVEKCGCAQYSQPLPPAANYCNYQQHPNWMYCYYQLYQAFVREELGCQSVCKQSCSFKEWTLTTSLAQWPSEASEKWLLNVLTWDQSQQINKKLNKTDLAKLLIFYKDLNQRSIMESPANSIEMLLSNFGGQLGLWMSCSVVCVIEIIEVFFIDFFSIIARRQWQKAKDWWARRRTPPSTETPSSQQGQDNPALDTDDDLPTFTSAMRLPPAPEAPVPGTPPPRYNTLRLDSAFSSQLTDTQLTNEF
# Test: Ussing chamber: inhibition of amiloride sensitive short circuit current (I_sc) in M-1 cells
# Type: cell-based
# Settings: Mouse kidney M-1 cells on transwell filters, Ussing chamber at 37° C., compound added to the apical solution
# Procedure: Mouse kidney M-1 cells were cultivated in DMEM containing 5% FCS and 5 μM dexamethasone for 10 to 12 days on polyester transwell filters. Filters were inserted into a teflon-coated well-plate which fit into the in-house ussing chamber system. Prior to measurement the medium of M-1 cells was replaced with Caco-2 transport buffer (Invitrogen, Germany). During measurements, the Ussing chamber temperature was kept at 37° C. Short circuit currents (I_sc) were measured in the voltage-clamp mode using an in-house built amplifier (Boehringer Ingelheim, Biberach) with the software package Lab View for data acquisition and analysis. The transepithelial electrical resistance (TEER) was determined by the application of voltage steps of ±5 mV every 5 sec. Compounds were administered at a final concentration of 3 μM or at increasing concentrations (1-3-10 μM) to the apical solution. At the end of each experiment the amiloride sensitive I_SC was measured by adding 3 μM amiloride to the apical compartment. Results are expressed as inhibition in percent of the amiloride effect or as IC50. Results are listed in tables 1 to 5 and further examples listed above.
row,Structure (SMILES),IC50
1,CC(C)(C)OC(=O)NCC(=O)N1CCC(CNC(N)=NC(=O)c2nc(Cl)c(N)nc2N)(Cc2ccccc2)CC1 [Example 1.24],27 nM
2,"COC(=O)CN1CCC(CCc2ccccc2)(CNC(N)=NC(=O)c2nc(Cl)c(N)nc2N)CC1 [Example 1.16, {4-[N′-(3,5-diamino-6-chloro-pyrazine-2-carbonyl)guanidinomethyl]-4-phenethyl-piperidin-1-yl}-acetic acid methyl ester]",2 nM
3,CC(C)(C)OC(=O)NCCNC(=O)N1CCC(CCc2ccccc2)(CNC(N)=NC(=O)c2nc(Cl)c(N)nc2N)CC1 [Example 1.33],7 nM
4,NC(=O)N1CCC(CCc2ccccc2)(CNC(N)=NC(=O)c2nc(Cl)c(N)nc2N)CC1 [Example 1.4],27 nM
5,COCC(=O)N1CCC(CCc2ccccc2)(CNC(N)=NC(=O)c2nc(Cl)c(N)nc2N)CC1 [Example 1.9],11 nM
6,"N/C(=N\C(=O)c1nc(Br)c(N)nc1N)NCC1(CCc2ccccc2)CCN(C(=O)CCC(=O)O)CC1 [Example 11, 4-{4-[N′-(3,5-Diamino-6-bromo-pyrazine-2-carbonyl)-guanidinomethyl]-4-phenethyl-piperidin-1-yl}-4-oxo-butyric acid]",502 nM
7,CC(C)(C)OC(=O)N1CCC(CNC(N)=NC(=O)c2nc(Cl)c(N)nc2N)(c2ccccc2)CC1 [Example 1.42],25 nM
8,CC(C)N1CCC(CCc2ccccc2)(CNC(N)=NC(=O)c2nc(Cl)c(N)nc2N)CC1 [Example 1.7],63 nM
9,CC(C)NC(=O)N1CCC(CNC(N)=NC(=O)c2nc(Cl)c(N)nc2N)(c2ccccc2)CC1 [Example 1.43],41 nM
10,COc1ccccc1C1(CNC(N)=NC(=O)c2nc(Cl)c(N)nc2N)CCN(C(=O)OC(C)(C)C)CC1 [Example 1.45],66 nM
11,COC(=O)c1ccc(CCC2(CNC(N)=NC(=O)c3nc(Cl)c(N)nc3N)CCN(C(=O)OC(C)(C)C)CC2)cc1 [Example 1.17],56 nM
12,CC(C)(C)OC(=O)NCCCN1CCC(CNC(N)=NC(=O)c2nc(Cl)c(N)nc2N)(Cc2ccccc2)CC1 [Example 1.37],64 nM
13,C[N+](C)(C)CC(=O)N1CCC(CCc2ccccc2)(CNC(N)=NC(=O)c2nc(Cl)c(N)nc2N)CC1 [Example 1.49],22 nM
14,CN(C)CC(=O)N1CCC(CCc2ccccc2)(CNC(=N)NC(=O)c2nc(Cl)c(N)nc2N)CC1 [Example 1.48],130 nM
15,CC(C)NC(=O)N1CCC(CNC(N)=NC(=O)c2nc(Cl)c(N)nc2N)(c2ccc3c(c2)OCO3)CC1 [Example 1.44],46 nM
16,CN(C)CCN1CCC(CNC(N)=NC(=O)c2nc(Cl)c(N)nc2N)(Cc2ccccc2)CC1 [Example 1.41],91 nM

# The remaining lines, values ahead:
row,IC50,Structure (SMILES)
1,40 nM,NC(=NC(=O)c1nc(Cl)c(N)nc1N)NCC1(CCc2ccccc2)CCN(C(=O)CCC(=O)O)CC1 [Example 3.1]
2,25 nM,NCCCNC(=O)N1CCC(CNC(N)=NC(=O)c2nc(Cl)c(N)nc2N)(Cc2ccccc2)CC1 [Example 2.13]
3,17 nM,NCCNC(=O)N1CCC(CNC(N)=NC(=O)c2nc(Cl)c(N)nc2N)(Cc2ccccc2)CC1 [Example 2.12]
4,27 nM,C[N+](C)(C)CCCNC(=O)N1CCC(CCc2ccccc2)(CNC(N)=NC(=O)c2nc(Cl)c(N)nc2N)CC1 [Example 5.1]
5,52 nM,C[N+]1(C)CCC(NC(=O)N2CCC(CCc3ccccc3)(CNC(N)=NC(=O)c3nc(Cl)c(N)nc3N)CC2)CC1 [Example 5.5]
6,394 nM,COC(=O)c1ccc(CCC2(CNC(N)=NC(=O)c3nc(Cl)c(N)nc3N)CCNCC2)cc1 [Example 2.1]
7,28 nM,NCCCNC(=O)N1CCC(CCc2ccccc2)(CNC(N)=NC(=O)c2nc(Cl)c(N)nc2N)CC1 [Example 2.6]
8,23 nM,NCCCCC(=O)N1CCC(CCc2ccccc2)(CNC(N)=NC(=O)c2nc(Cl)c(N)nc2N)CC1 [Example 2.3]
9,55 nM,NC(=NC(=O)c1nc(Cl)c(N)nc1N)NCC1(Cc2ccccc2)CCNCC1 [Example 2.11]
